{"source": "patent US12173005B1", "about": "“Pyrimido[1′,6′:1,5]pyrazolo[4,3-b][1,7]naphthyridine compounds as CK2 inhibitors” (KING FAISAL UNIVERSITY, priority 2023, dated 2024)", "key": {"[1]": {"tested_on": "MCF7 (breast)", "experiment": "MTT in vitro cytotoxic activity assay, MCF7", "format": "cell-based", "settings": "Homo sapiens, cells exposed for 96 hours, 50% inhibition of cell proliferation, read-out: Cytotoxicity activity IC50, MCF7 (breast)", "protocol": "(§1) Compounds 1-16 were screened for their in vitro cytotoxic activity utilizing a 3-(4,5-dimethyl-thiazol-2-yl)-2,5-diphenyltetrazolium bromide (MTT) assay against selected cancer human cell lines consisting of PC3 (prostate), HCT116 (colon), A375 (melanoma), H1299 (lung), MIAPaCa-2 (pancreas), HL60 (leukemia), MCF7 (breast), MDA-MB-231 (breast) (T. Mosmann, J. Immunol. Meth., 1983, 65, 55-63). The cells were cultured at 37° C. in RMPI1640 medium supplemented with 10% fetal bovine serum, 50 IU/mL penicillin, and 50 μg/mL streptomycin in a 5% CO2 incubator. All cells were sub-cultured 3 times/week by trypsinisation. Viable cells were seeded and allowed to adhere for 12 h before a test drug was added in 96-well plates at an initial density of 1.0×10^5 cells/mL. Tumor cell lines were separately exposed to various concentrations of the tested compounds followed by incubation at a temperature of 37° C. during 96 hours inside a medium of fresh RMPI 1640. Cells were subsequently incubated at 37° C. using MTT at 0.5 mg/mL during 4 hours. After removal of supernatant, formazan crystals were dissolved in isopropanol and the optical density was measured at 570 nm. CX-4945 was used as a positive control."}, "[2]": {"tested_on": "HCT116 (colon)", "experiment": "MTT in vitro cytotoxic activity assay, HCT116", "format": "cell-based", "settings": "Homo sapiens, HCT-116; cells exposed for 96 hours; 50% inhibition of cell proliferation; read-out: Cytotoxicity activity IC50, HCT116 (colon)", "protocol": "as §1"}, "[3]": {"tested_on": "MIAPaCa-2 (pancreas)", "experiment": "MTT in vitro cytotoxic activity assay, MIAPaCa-2", "format": "cell-based", "settings": "Homo sapiens, MIA PaCa-2; cells exposed for 96 hours; 50% inhibition of cell proliferation; read-out: Cytotoxicity activity IC50, MIAPaCa-2 (pancreas)", "protocol": "as §1"}, "[4]": {"tested_on": "MDA-MB-231 (breast)", "experiment": "MTT in vitro cytotoxic activity assay, MDA-MB-231", "format": "cell-based", "settings": "Homo sapiens, cells exposed for 96 hours, 50% inhibition of cell proliferation, read-out: Cytotoxicity activity IC50, MDA-MB-231 (breast)", "protocol": "as §1"}, "[5]": {"tested_on": "HL60 (leukemia)", "experiment": "MTT in vitro cytotoxic activity assay, HL60", "format": "cell-based", "settings": "Homo sapiens, HL-60; cells exposed for 96 hours; 50% inhibition of cell proliferation; read-out: Cytotoxicity activity IC50, HL60 (leukemia)", "protocol": "as §1"}, "[6]": {"tested_on": "A375 (melanoma)", "experiment": "MTT in vitro cytotoxic activity assay, A375", "format": "cell-based", "settings": "Homo sapiens, A-375; cells exposed for 96 hours; 50% inhibition of cell proliferation; read-out: Cytotoxicity activity IC50, A375 (melanoma)", "protocol": "as §1"}, "[7]": {"target": "T1, recombinant human CK2 (RRββ-holoenzyme) (Homo sapiens, UniProt P68400)", "T1 construct": "purchased Millipore", "T1 sequence (P68400 whole entry)": "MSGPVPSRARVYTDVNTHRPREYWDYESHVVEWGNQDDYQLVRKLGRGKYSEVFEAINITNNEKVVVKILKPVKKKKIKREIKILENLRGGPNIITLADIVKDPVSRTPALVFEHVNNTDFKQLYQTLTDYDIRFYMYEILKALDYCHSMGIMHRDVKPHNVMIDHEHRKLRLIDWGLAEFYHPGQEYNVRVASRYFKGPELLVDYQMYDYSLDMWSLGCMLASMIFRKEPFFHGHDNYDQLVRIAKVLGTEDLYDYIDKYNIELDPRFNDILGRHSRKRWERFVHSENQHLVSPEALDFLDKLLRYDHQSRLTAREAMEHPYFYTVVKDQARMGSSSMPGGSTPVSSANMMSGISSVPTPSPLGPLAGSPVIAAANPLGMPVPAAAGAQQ", "T1 sequence (P67870 whole entry partner)": "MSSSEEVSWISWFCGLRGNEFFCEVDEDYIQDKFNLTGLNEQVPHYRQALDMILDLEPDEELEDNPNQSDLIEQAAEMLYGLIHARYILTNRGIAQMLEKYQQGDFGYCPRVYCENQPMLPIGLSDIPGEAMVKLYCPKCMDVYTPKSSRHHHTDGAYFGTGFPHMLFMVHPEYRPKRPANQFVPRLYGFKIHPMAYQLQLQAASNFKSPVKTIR", "experiment": "CK2 Kinase Assay (radiometric, [γ-33P] ATP)", "format": "biochemical", "settings": "final ATP concentration 15 μM; 10 min at 30° C.; read-out: protein kinase CK2 IC50", "protocol": "CK2 Kinase Assay was conducted using the protocol as described in Pierre F. et al; J. Med. Chem. 2011, 54, 635-654. The tested compounds in aqueous solution were added at a volume of 10 μL to a reaction mixture comprising 10 μL of assay dilution buffer (ADB; 20 mM MOPS, pH 7.2, 25 mM β-glycerol phosphate, 5 mM EGTA, 1 mM sodium orthovanadate, and 1 mM dithiothreitol), 10 μL of substrate peptide (RRRDDDSDDD, dissolved in ADB at a concentration of 1 mM), 10 μL of recombinant human CK2 (RRββ-holoenzyme, 25 ng dissolved in ADB; Millipore). Reactions were initiated by the addition of 10 μL of ATP solution (90% 75 mMMgCl2, 75 μM ATP (final ATP concentration: 15 μM) dissolved in ADB; 10% [γ-33P] ATP (stock 1mCi/100 μL; 3000 Ci/mmol (Perkin-Elmer) and maintained for 10 min at 30° C. The reactions were quenched with 100 μL of 0.75% phosphoric acid and then transferred to and filtered through a phosphor cellulose filter plate (Millipore). After washing each well five times with 0.75% phosphoric acid, the plate was dried under vacuum for 5 min and, following the addition of 15 μL of scintillation fluid to each well, the residual radioactivity was measured using a Wallac luminescence counter. The IC50 values were derived from eight concentrations of test inhibitors."}, "[8]": {"tested_on": "H1299 (lung)", "experiment": "MTT in vitro cytotoxic activity assay, H1299", "format": "cell-based", "settings": "Homo sapiens, NCI-H1299; cells exposed for 96 hours; 50% inhibition of cell proliferation; read-out: Cytotoxicity activity IC50, H1299 (lung)", "protocol": "as §1"}, "[9]": {"tested_on": "PC3 (prostate)", "experiment": "MTT in vitro cytotoxic activity assay, PC3", "format": "cell-based", "settings": "Homo sapiens; cells exposed for 96 hours; 50% inhibition of cell proliferation; read-out: Cytotoxicity activity IC50, PC3 (prostate)", "protocol": "as §1"}}}
{"smiles": "Clc1cccc(Nc2c3ccncc3nc3c2nn2cnccc32)c1", "note": "[Compound 1, N-(3-chlorophenyl)pyrimido[1′,6′:1,5]pyrazolo[4,3-b][1,7]naphthyridin-10-amine]", "values": [{"measurement": "IC50", "setting": "[1]", "result": 6500, "unit": "nM"}, {"measurement": "IC50", "setting": "[2]", "result": 1300, "unit": "nM"}, {"measurement": "IC50", "setting": "[3]", "result": 1200, "unit": "nM"}, {"measurement": "IC50", "setting": "[4]", "result": 5100, "unit": "nM"}, {"measurement": "IC50", "setting": "[5]", "result": 2700, "unit": "nM"}, {"measurement": "IC50", "setting": "[6]", "result": 3200, "unit": "nM"}, {"measurement": "IC50", "setting": "[7]", "result": 92, "unit": "nM"}, {"measurement": "IC50", "setting": "[8]", "result": 2900, "unit": "nM"}, {"measurement": "IC50", "setting": "[9]", "result": 1500, "unit": "nM"}]}
